# Values quoted from earlier work as cited in patent publication US7495029B2, “Prodrugs of (2R)-2-propyloctanoic acid for the treatment of stroke” (Merck & Co., Inc, priority 2004, dated 2009).
# Assays:
# [1] = test system: gerbils subjected to a transient global ischemia event; conditions: Jalil et al, Brain Research 2002
# mice = conditions: Tunctan et al, Pharmacological Res 2003
# rat stroke models = conditions: Kogure et al, Life Sciences 2002
# [2] = test system: vascular endothelial cell; conditions: in vitro; Kogure et al, Life Sciences 2002
# lipid peroxidation = conditions: in vitro; Kogure et al, Life Sciences 2002
Compound,neuroprotection against hippocampal damage [1],endotoxin-induced mortality (mice),"development of cerebral edema, cerebral infarction, neurological symptoms and delayed neuronal death (rat stroke models)",vascular endothelial cell damage [2],lipid peroxidation (lipid peroxidation)
CC1(C)OC(=O)C(c2cccc(F)c2)=C1c1ccc(S(C)(=O)=O)cc1 [DFU],neuroprotective against hippocampal damage,dose dependently reduce endotoxin-induced mortality,–,–,–
Edaravone,–,–,"inhibit the development of cerebral edema, cerebral infarction, neurological symptoms and delayed neuronal death",inhibit,inhibit lipid peroxidation
